System: 616215-338-R-J1-PDC complex spheroid viability
Assay: Anticancer human tumor 616215-338-R-J1-PDC patient-derived colon adenocarcinoma cell line growth inhibition [POLQ]
Settings: for IC50: curve of first compound; for viability, T/C: stronger effect = lower value
Outline: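 Three-cell-type spheroids modelling solid tumor plus stroma served as the readout system; POL inhibitors were tested individually and in combination, concentration ranges set by clinical Cmax where known.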

[1] = second compound 0.0316 µM, first compound 0.0316 µM
[2] = second compound 0.0316 µM, first compound 0.1 µM
[3] = second compound 0.0316 µM, first compound 0.316 µM
[4] = second compound 0.0316 µM, first compound 1 µM
[5] = second compound 0.1 µM, first compound 0.0316 µM
[6] = second compound 0.1 µM, first compound 0.1 µM
[7] = second compound 0.1 µM, first compound 0.316 µM
[8] = second compound 0.1 µM, first compound 1 µM
[9] = second compound 0.316 µM, first compound 0.0316 µM
[10] = second compound 0.316 µM, first compound 0.1 µM
[11] = second compound 0.316 µM, first compound 0.316 µM
[12] = second compound 0.316 µM, first compound 1 µM
[13] = second compound 1 µM, first compound 0.0316 µM
[14] = second compound 1 µM, first compound 0.1 µM
[15] = second compound 1 µM, first compound 0.316 µM
[16] = second compound 1 µM, first compound 1 µM
[17] = second compound 3.16 µM, first compound 0.0316 µM
[18] = second compound 3.16 µM, first compound 0.1 µM
[19] = second compound 3.16 µM, first compound 0.316 µM
[20] = second compound 3.16 µM, first compound 1 µM
[21] = second compound 10 µM, first compound 0.0316 µM
[22] = second compound 10 µM, first compound 0.1 µM
[23] = second compound 10 µM, first compound 0.316 µM
[24] = second compound 10 µM, first compound 1 µM
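Also: spheroids exposed to compounds for one week before readout.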
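For viability, T/C in this document: percent viability relative to DMSO vehicle wells taken as 100%.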

For `COc1cccc(OCCCN)c1-c1cc(Nc2cnc(C#N)cn2)n[nH]1` + COC1C(OC(N)=O)C(O)C(Oc2ccc3c(O)c(NC(=O)c4ccc(O)c(CC=C(C)C)c4)c(=O)oc3c2C)OC1(C)C, the IC50 (second compound 0.0316 µM) was > 1000 nM, the IC50 (second compound 0.1 µM) was > 1000 nM and the IC50 (second compound 0.316 µM) was > 1000 nM. The IC50 (second compound 1 µM) was > 1000 nM, the IC50 (second compound 3.16 µM) was > 1000 nM and the IC50 (second compound 10 µM) was 866 nM. It also gave a viability, T/C (second compound 0.0316 µM, first compound 0.00316 µM) of 95.7%, a viability, T/C (second compound 0.0316 µM, first compound 0.01 µM) of 109% and a viability, T/C [1] of 94.8%. For the same molecule, the viability, T/C [2] was 76.1%, the viability, T/C [3] was 69.3% and the viability, T/C [4] was 61%. For the same molecule, the viability, T/C (second compound 0.1 µM, first compound 0.00316 µM) was 98.6%, the viability, T/C (second compound 0.1 µM, first compound 0.01 µM) was 99.3% and the viability, T/C [5] was 97.8%. The viability, T/C [6] was 78.8%, the viability, T/C [7] was 65.1% and the viability, T/C [8] was 51.7%. The viability, T/C (second compound 0.316 µM, first compound 0.00316 µM) was 100%, the viability, T/C (second compound 0.316 µM, first compound 0.01 µM) was 106% and the viability, T/C [9] was 85.7%. For the same molecule, the viability, T/C [10] was 87.4%, the viability, T/C [11] was 68% and the viability, T/C [12] was 53.5%. The viability, T/C (second compound 1 µM, first compound 0.00316 µM) was 103%, the viability, T/C (second compound 1 µM, first compound 0.01 µM) was 101% and the viability, T/C [13] was 89.2%. The viability, T/C [14] was 75.3%, the viability, T/C [15] was 67.2% and the viability, T/C [16] was 54.2%. The viability, T/C (second compound 3.16 µM, first compound 0.00316 µM) was 98.8%, the viability, T/C (second compound 3.16 µM, first compound 0.01 µM) was 95.3% and the viability, T/C [17] was 86.3%. It also gave a viability, T/C [18] of 74.2%, a viability, T/C [19] of 63.3% and a viability, T/C [20] of 55.2%. For the same molecule, the viability, T/C (second compound 10 µM, first compound 0.00316 µM) was 95.7%, the viability, T/C (second compound 10 µM, first compound 0.01 µM) was 97% and the viability, T/C [21] was 88.1%. The viability, T/C [22] was 79.8%, the viability, T/C [23] was 64.4% and the viability, T/C [24] was 47.9%.

In the case of `Nc1ccn(C2OC(CO)C(O)C2(F)F)c(=O)n1` (centres undefined) + COC1C(OC(N)=O)C(O)C(Oc2ccc3c(O)c(NC(=O)c4ccc(O)c(CC=C(C)C)c4)c(=O)oc3c2C)OC1(C)C, the IC50 (second compound 0.0316 µM) is reported as < 31.6 nM, the IC50 (second compound 0.1 µM) is reported as 65.7 nM and the IC50 (second compound 0.316 µM) is reported as 65.7 nM. For the same molecule, the IC50 (second compound 1 µM) was 61.7 nM, the IC50 (second compound 3.16 µM) was 57.9 nM and the IC50 (second compound 10 µM) was 59.6 nM. For the same molecule, the viability, T/C [1] was 49.3%, the viability, T/C [2] was 32.9% and the viability, T/C [3] was 24%. The viability, T/C [4] was 35%, the viability, T/C (second compound 0.0316 µM, first compound 3.16 µM) was 34% and the viability, T/C (second compound 0.0316 µM, first compound 10 µM) was 30%. It also gave a viability, T/C [5] of 62.5%, a viability, T/C [6] of 42.8% and a viability, T/C [7] of 28.5%. For the same molecule, the viability, T/C [8] was 29.1%, the viability, T/C (second compound 0.1 µM, first compound 3.16 µM) was 30.1% and the viability, T/C (second compound 0.1 µM, first compound 10 µM) was 35.3%. The viability, T/C [9] was 56.9%, the viability, T/C [10] was 46% and the viability, T/C [11] was 26.4%. The viability, T/C [12] was 27.7%, the viability, T/C (second compound 0.316 µM, first compound 3.16 µM) was 32.1% and the viability, T/C (second compound 0.316 µM, first compound 10 µM) was 32.9%. It also gave a viability, T/C [13] of 60.1%, a viability, T/C [14] of 42.7% and a viability, T/C [15] of 24.4%. It also gave a viability, T/C [16] of 23.2%, a viability, T/C (second compound 1 µM, first compound 3.16 µM) of 32.6% and a viability, T/C (second compound 1 µM, first compound 10 µM) of 29.3%. For the same molecule, the viability, T/C [17] was 64.8%, the viability, T/C [18] was 39.5% and the viability, T/C [19] was 23.1%. It also gave a viability, T/C [20] of 27.8%, a viability, T/C (second compound 3.16 µM, first compound 3.16 µM) of 30.6% and a viability, T/C (second compound 3.16 µM, first compound 10 µM) of 30%. It also gave a viability, T/C [21] of 69.3%, a viability, T/C [22] of 34.6% and a viability, T/C [23] of 28.5%. The viability, T/C [24] was 28.1%, the viability, T/C (second compound 10 µM, first compound 3.16 µM) was 28.4% and the viability, T/C (second compound 10 µM, first compound 10 µM) was 36.5%.
